The record followed here is patent US8795984B2, “Production of glycoproteins with reduced O-glycosylation” (Merck Sharp & Dohme Corp., priority 2005, dated 2014).

A short description of data set [1]: Solubility in the cell culture conditions. The format is physicochemical. Conditions: in the cell culture conditions described (BMGY/BMMY). The protocol: (§1) Kringle 1-3 protein expression for the transformed yeast strains was carried out at in shake flasks at 24° C. with buffered glycerol-complex medium (BMGY) consisting of 1% yeast extract, 2% peptone, 100 mM potassium phosphate buffer pH 6.0, 1.34% yeast nitrogen base, 4×10-5% biotin, and 1% glycerol. The induction medium for protein expression was buffered methanol-complex medium (BMMY) consisting of 1% methanol instead of glycerol in BMGY. Pmt inhibitor Pmti-1, Pmti-2, or Pmti-3 in methanol was added to the growth medium to a final concentration of 0.2 μM, 2 μM, or 20 μM at the time the induction medium was added. Cells were harvested and centrifuged at 2,000 rpm for five minutes. The Pmt inhibitors Pmti-1, Pmti-2, and Pmti-3 are essentially interchangeable, with small variations in ease of use.

Data set [2] relates to O-glycosylation of secreted recombinant reporter proteins. Briefly: Western blot of His-tagged Kringle 1-3 protein in growth media (FIG. 1). Type of data set: cell-based, Pichia pastoris. The conditions noted are these: yJC53 treated with 2 or 20 μM, compared with pmt1Δ strain yJC55. The protocol: as §1, with “use. […]” for “use.”

Turning to `O=C(O)CN1C(=O)/C(=C/c2ccc(OCCc3ccccc3)c(OC(CO)c3ccccc3)c2)SC1=S` (centres unmarked) [Pmti-3], the solubility entry in data set [1] was “greater than that of Pmti-1 and Pmti-2”.

`O=C(O)CN1C(=O)C(=Cc2ccc(OCc3ccccc3)c(OCc3ccccc3)c2)SC1=S` [Pmti-1, 5-[[3,4-bis(phenylmethoxy)phenyl]methylene]-4-oxo-2-thioxo-3-thiazolidineacetic Acid]: in data set [2], the “O-glycosylation of Kringle 1-3 protein on Western blot” value was “reduced O-glycosylation to a level similar to that observed in a strain lacking Pmt1”.
